From ChEMBL document CHEMBL4673302, “Efficient synthesis and antitumor evaluation of 4-aminomethyl-N-arylpyrazoles: Discovery of potent and selective agents for ovarian cancer” (Bioorg Med Chem, 2021) come the findings set out here.

The subject of one data set is U-251. Put plainly: Anticancer activity against human U-251 cells assessed as cell growth inhibition measured after 48 hrs by sulforhodamine B assay. The format is functional. Particulars: 48 h. Background: Sulforhodamine B stains cellular protein and so reports cell mass.
In a further data set the test system is HT-29. Put plainly: Anticancer activity against human HT-29 cells assessed as cell growth inhibition measured after 48 hrs by sulforhodamine B assay. The format is functional.
A further data set concerns 786-0. Put plainly: Anticancer activity against human 786-0 cells assessed as cell growth inhibition measured after 48 hrs by sulforhodamine B assay. The data set is classed as functional. The settings on record: 48 h.
Another data set relates to HaCaT. Put plainly: Cytotoxicity against human HaCaT cells assessed as cell growth inhibition measured after 48 hrs by sulforhodamine B assay. The data set is classed as cell-based. Particulars: hacat, 48 h.
A further data set deals with OVCAR-3. As to the kind of experiment: Anticancer activity against human OVCAR-3 cells assessed as cell growth inhibition measured after 48 hrs by sulforhodamine B assay. The data set is classed as functional. Particulars: 48 h.
A further data set has as its system PC-3. As to the kind of experiment: Anticancer activity against human PC-3 cells assessed as cell growth inhibition measured after 48 hrs by sulforhodamine B assay. The settings on record: 48 h. The data set is classed as functional.
Another data set has as its system NCI-H460. Put plainly: Anticancer activity against human NCI-H460 cells assessed as cell growth inhibition measured after 48 hrs by sulforhodamine B assay. The format is functional.
The next data set concerns K562. Put plainly: Anticancer activity against human K562 cells assessed as cell growth inhibition measured after 48 hrs by sulforhodamine B assay. The format is functional. Particulars: 48 h.
A further data set relates to MCF7. As to the kind of experiment: Anticancer activity against human MCF7 cells assessed as cell growth inhibition measured after 48 hrs by sulforhodamine B assay. The format is functional. Particulars: 48 h.

What is called GI50 is the concentration that inhibits growth by half. For the compound `CCOC(=O)c1nn(-c2ccc(Cl)cc2)c(-c2ccc(Cl)cc2)c1CNC(C)(C)C` [listing 1 of 2 here], the GI50 in the data set with U-251 was 6.4 µM; in the data set on HT-29 (48 h), 57.7 µM; with 786-0, 73.7 µM; in the data set on HaCaT it was 2.9 µM; with OVCAR-3, 21.6 µM; with PC-3 it was 196 µM. The GI50 came out at 144 µM in the data set with NCI-H460 (48 h), 11.2 µM in the data set with K562 and 120 µM in the data set with MCF7.
As to `CCOC(=O)c1nn(-c2ccccc2)c(-c2ccc(Cl)cc2)c1CNC(C)(C)C` [listing 1 of 2 here], the concentration for 50% growth inhibition (GI50) is 73.8 µM in the data set on U-251; 58.5 µM with HT-29 (48 h); 86.7 µM with 786-0; 63.5 µM in the data set on HaCaT; 0.134 µM with OVCAR-3; 28.6 µM in the data set on PC-3. Moreover, the values for the GI50 in the data set on NCI-H460 (48 h), in the data set with K562 and in the data set on MCF7 were 69.2 µM, 57.6 µM and 72.4 µM, respectively.
As to `CCOC(=O)c1nn(-c2ccccc2)c(-c2ccc(Br)cc2)c1CNC(C)(C)C` [listing 1 of 2 here], the GI50 in the data set with U-251 was determined as 71.9 µM; in the data set with HT-29 (48 h) it was 21.8 µM; in the data set with 786-0, 83.9 µM; with HaCaT it was 61.7 µM; in the data set on OVCAR-3 it was 2.91 µM; with PC-3, 15.9 µM. The GI50 was 118 µM with NCI-H460 (48 h), 22 µM with K562 and 74.2 µM with MCF7.
Turning to `CCOC(=O)c1nn(-c2ccccc2)c(-c2ccccc2)c1CNC(C)(C)C` [listing 1 of 2 here], the GI50 with U-251 came to 81.5 µM; in the data set with HT-29 (Homo sapiens, HT-29, 48 h) it was 69.6 µM; with 786-0 it was 144 µM; in the data set with HaCaT, 77 µM; with OVCAR-3, 1.01 µM; in the data set on PC-3, 39.9 µM. The results for the 50% growth inhibitory concentration (GI50) with NCI-H460 (48 h), in the data set on K562 and in the data set on MCF7 were 76.9 µM, 9.62 µM and 81.7 µM, respectively.
In the case of `CCOC(=O)c1nn(-c2ccccc2)c(-c2ccccc2)c1CNC(C)(C)C` [listing 2 of 2 here], the GI50 in the data set with U-251 is 440 µM; in the data set on HT-29 (48 h), 94.6 µM; with 786-0, 42.4 µM; with HaCaT, 13.3 µM; in the data set on OVCAR-3, 195 µM; in the data set on PC-3 it was 91.7 µM. Further, the figures for the 50% growth inhibitory concentration (GI50) in the data set with NCI-H460 (48 h), in the data set on K562 and with MCF7 were 195 µM, 113 µM and 504 µM, respectively.
For `CCOC(=O)c1nn(-c2ccc(Cl)cc2)c(-c2ccc(Cl)cc2)c1CNC(C)(C)C` [listing 2 of 2 here], the GI50 in the data set on U-251, with HT-29 (48 h), with 786-0, in the data set on HaCaT, with OVCAR-3 and in the data set on PC-3 was greater than 520 µM throughout. The 50% growth inhibitory concentration (GI50) with NCI-H460 (48 h), in the data set on K562 and with MCF7 was greater than 520 µM each time.
As to `CCOC(=O)c1nn(-c2ccc(Cl)cc2)c(-c2ccc(F)cc2)c1CNC(C)(C)C`, the concentration for 50% growth inhibition (GI50) with U-251, in the data set on HT-29 (48 h), in the data set on 786-0, in the data set with HaCaT, in the data set on OVCAR-3 and with PC-3 was greater than 538 µM throughout. Besides, the 50% growth inhibitory concentration (GI50) in the data set on NCI-H460 (48 h), with K562 and with MCF7 was greater than 538 µM throughout.
As for `CCOC(=O)c1nn(-c2ccccc2)c(-c2ccc(OC)cc2)c1CNC(C)(C)C` [listing 1 of 2 here], the concentration for 50% growth inhibition (GI50) was found to be 527 µM with U-251; 44.2 µM in the data set with HT-29 (48 h); 166 µM in the data set with 786-0; 19.2 µM in the data set with HaCaT; 17.1 µM in the data set with OVCAR-3; 245 µM in the data set on PC-3. For the same compound, the GI50 in the data set on NCI-H460 (48 h) was found to be 148 µM; in the data set with K562 it was 29.8 µM; in the data set on MCF7, 244 µM.
Take `CCOC(=O)c1nn(-c2ccccc2)c(-c2ccc([N+](=O)[O-])cc2)c1CNC(C)(C)C`: the 50% growth inhibitory concentration (GI50) is greater than 546 µM with U-251; 35.1 µM in the data set with HT-29 (48 h); greater than 546 µM in the data set on 786-0; 130 µM in the data set with HaCaT; 288 µM in the data set on OVCAR-3; 128 µM with PC-3. Also, the concentration for 50% growth inhibition (GI50) in the data set on NCI-H460 (48 h) was found to be 327 µM; in the data set with K562 it was 191 µM; in the data set with MCF7 it was 168 µM.
Regarding `CCOC(=O)c1nn(-c2ccccc2)c(-c2ccc(Br)cc2)c1CNC(C)(C)C` [listing 2 of 2 here], the 50% growth inhibitory concentration (GI50) in the data set on U-251, with HT-29 (48 h), in the data set with 786-0, in the data set on HaCaT, with OVCAR-3 and in the data set with PC-3 was greater than 509 µM throughout. The GI50 in the data set with NCI-H460 (48 h), in the data set with K562 and in the data set with MCF7 was greater than 509 µM throughout.
Regarding `CCOC(=O)c1nn(-c2ccccc2)c(-c2ccc(C)cc2)c1CNC(C)(C)C` [listing 1 of 2 here], the GI50 with U-251 came to 65.4 µM; with HT-29 (48 h), 68.1 µM; in the data set on 786-0 it was 86.1 µM; in the data set with HaCaT, 72.1 µM; in the data set with OVCAR-3 it was 0.054 µM; in the data set with PC-3, 59.9 µM. In addition, the GI50 was 75.2 µM in the data set on NCI-H460 (48 h), 11.3 µM with K562 and 78.2 µM with MCF7.
Take `CCOC(=O)c1nn(-c2ccccc2)c(-c2ccc(Cl)cc2)c1CNC(C)(C)C` [listing 2 of 2 here]: the GI50 with U-251, in the data set on HT-29 (48 h), in the data set on 786-0, in the data set with HaCaT, in the data set with OVCAR-3 and in the data set on PC-3 was greater than 559 µM in each case. For the same compound, the GI50 with NCI-H460 (48 h), with K562 and with MCF7 was greater than 559 µM in each case.
Take `CCOC(=O)c1nn(-c2ccccc2)c(-c2ccc(OC)cc2)c1CNC(C)(C)C` [listing 2 of 2 here]: the 50% growth inhibitory concentration (GI50) came out at 134 µM with U-251; 61.3 µM in the data set with HT-29 (Homo sapiens, HT-29, 48 h); 537 µM with 786-0; 68.3 µM in the data set with HaCaT; 0.047 µM in the data set with OVCAR-3; 530 µM in the data set on PC-3. The GI50 in the data set with NCI-H460 (Homo sapiens, NCI-H460, 48 h) turned out to be 119 µM; in the data set on K562, 66.6 µM; with MCF7, 116 µM.
As for `CCOC(=O)c1nn(-c2ccccc2)c(-c2ccc(F)cc2)c1CNC(C)(C)C`, the concentration for 50% growth inhibition (GI50) with U-251 was greater than 580 µM; in the data set on HT-29 (48 h), 29.9 µM; in the data set on 786-0, 319 µM; in the data set on HaCaT it was 32.9 µM; in the data set on OVCAR-3, 92.1 µM; with PC-3, 82.1 µM. In addition, the 50% growth inhibitory concentration (GI50) with NCI-H460 (48 h) came out at 179 µM; in the data set with K562 it was 161 µM; in the data set with MCF7, 517 µM.
With `CCOC(=O)c1nn(-c2ccc(Cl)cc2)c(-c2ccccc2)c1CNC(C)(C)C`, the concentration for 50% growth inhibition (GI50) in the data set with U-251, in the data set on HT-29 (48 h), in the data set on 786-0, in the data set with HaCaT, with OVCAR-3 and in the data set with PC-3 was greater than 559 µM each time. Besides, the concentration for 50% growth inhibition (GI50) in the data set on NCI-H460 (48 h), in the data set on K562 and with MCF7 was greater than 559 µM throughout.
For `CCOC(=O)c1nn(-c2ccc(Cl)cc2)c(-c2ccc(Br)cc2)c1CNC(C)(C)C`, the GI50 with U-251, with HT-29 (48 h), with 786-0, in the data set on HaCaT, in the data set with OVCAR-3 and in the data set on PC-3 was greater than 476 µM in each case. Besides, the concentration for 50% growth inhibition (GI50) in the data set with NCI-H460 (48 h), in the data set with K562 and in the data set with MCF7 was greater than 476 µM throughout.
On to `CCOC(=O)c1nn(-c2ccccc2)c(-c2ccc(C)cc2)c1CNC(C)(C)C` [listing 2 of 2 here], for which the GI50 with U-251, with HT-29 (48 h), in the data set on 786-0, in the data set with HaCaT, in the data set on OVCAR-3 and with PC-3 was greater than 585 µM throughout. Besides, the concentration for 50% growth inhibition (GI50) in the data set with NCI-H460 (48 h), with K562 and with MCF7 was greater than 585 µM throughout.
